This is an account of results in US10851053B2, “Chemical compounds” (GlaxoSmithKline Intellectual Property Development Limited, priority 2016, dated 2020).

SMILES strings stand for the structures. Several values for one entry are separate records, joined by “and”; a condition that tells them apart may be missing. Identical values can stand only once. Counter-ions that a name gives are not always drawn.

In one assay the test system is ATF4 translation (ATF4 pathway), SH-SY5Y-ATF4-NanoLuc cells. In words: ATF4 cell based assay (ATF4 5'-UTR NanoLuc luciferase reporter, Thapsigargin induced cellular stress). The note with it: SH-SY5Y-ATF4-NanoLuc cells challenged with Thapsigargin for 14-18 hours; average of two or more experimental runs; read-out: average ATF4 pathway inhibitory activity (IC50). An excerpt: The ATF4 reporter assay measures the effect of Thapsigargin induced cellular stress on ATF4 expression. For this reporter assay, a stable cell line was created by transfecting SH-SY5Y cells with a plasmid containing the NanoLuc® luciferase gene fused to the 5′-UTR of ATF4, under the control of the CMV promoter. The ATF4 5′-UTR contains two open reading frames which mediate the cellular stress-dependent translation of the reporter gene. Clones stably expressing the reporter construct were isolated and selected based on the luminescence response to thapsigargin and inhibition of this signal by test compounds. Briefly, SH-SY5Y-ATF4-NanoLuc cells were challenged with Thapsigargin for 14-18 hours to determine the stress effect with or without test compounds.
Cells were propagated in growth media consisting of 90% DMEM F12 (InVitrogen #11320-033), 10% Fetal Bovine Serum (Gibco #10438-026), 5 mM Glutamax (Gibco #35050-061), 5 mM Hepes, (Gibco #15630-080), and 0.5 mg/ml Geneticin (Gibco #10131-027). Cells were prepared for the assay by removing all media from cells, washing the plated cells with phosphate buffered saline, and detached by adding a solution comprised of 10% Tryple express solution (InVitrogen12604-021) and 90% enzyme-free cell dissociation buffer HANKS base (Gibco 13150-016). The trypsin was deactivated by adding assay media comprised of 90% phenol-red free DMEM F12 (InVitrogen, 11039), 10% Fetal Bovine Serum (Gibco #10438-026), (5 mM Glutamax (Gibco #35050-061), 5 mM Hepes, (Gibco #15630-080), and 0.5 mg/ml Geneticin (Gibco #10131-027). Suspended cells were spun down at 300 g for 5 min, the supernatant was removed and the cell pellet was suspended in warm media (30-37° C.) comprised as above at (1e6 cell/ml).
Assay plates were prepared by adding 250 nL of compound stock solution in 100% DMSO to each well, followed by dispensing 20 microliters/well cell suspension to deliver 15-20 k cell/well. Cells were incubated for 1 hour at 37° C. Then, 5 μL of 1.5 μM or 1 μM of Thapsigargin (final concentration: 200-300 nM) was added to each well of cells. Assay plates containing cells were incubated for 14-18 hours at 37° C.
The measurement of luciferase produced by the ATF4 constructs was measured as follows. Aliquots of the Nano-Glo reagent (Nano-Glo® Luciferase Assay Substrate, Promega, N113, Nano-Glo® Luciferase Assay Buffer, Promega, N112 (parts of Nano-Glo® Luciferase Assay System, N1150) were brought to room temperature, the substrate and buffer were mixed according to manufacturer's instructions. The cell plates were equilibrated to room temperature. 25 microliters/well of the mixed Nano-Glo reagent were dispensed into assay wells and pulse spun to settle contents and the plate was sealed with film. The plates were incubated at room temperature for 1 hour before detecting luminescence on an Envision plate reader.
Compounds of the invention are tested for activity against ATF4 translation in the above assay.
Broadly, the IC50 is the point on the concentration scale where inhibition reaches its midpoint. Regarding `O=C(COc1ccc(Cl)cc1)NCC1CCN(CC(=O)Nc2ccc(Cl)cc2)C1` (stereo not drawn) [Example 4, 2-(4-chlorophenoxy)-N-((1-(2-((4-chlorophenyl)amino)-2-oxoethyl)pyrrolidin-3-yl)methyl)acetamide], the IC50 was less than 100 nM.

Turning to `O=C(COc1ccc(Cl)cc1)N[C@H]1[C@@H]2CN(CC(O)COc3ccc(Cl)cc3)C[C@@H]21` (stereo partly drawn) [Example 76, 2-(4-chlorophenoxy)-N-((1R,5S,6s)-3-(3-(4-chlorophenoxy)-2-hydroxypropyl)-3-azabicyclo[3.1.0]hexan-6-yl)acetamide], the IC50 was less than 100 nM.

On to `O=C(COc1ccc(Cl)cc1)NCCC1CCN(C(=O)COc2ccc(Cl)cc2)C1` (stereo not drawn) [Example 16, 2-(4-chlorophenoxy)-N-(2-(1-(2-(4-chlorophenoxy)acetyl)pyrrolidin-3-yl)ethyl)acetamide], for which the 50% inhibitory concentration (IC50) fell in the range of 101 to 1000 nM.

As for `CC1(CNC(=O)COc2ccc(Cl)cc2)CCN(CCOc2ccc(Cl)cc2)C1` (stereo not drawn) [Example 43, 2-(4-chlorophenoxy)-N-((1-(2-(4-chlorophenoxy)ethyl)-3-methylpyrrolidin-3-yl)methyl)acetamide], the IC50 was less than 100 nM.

Regarding `O=C(COc1ccc(Cl)cc1)NOC1CCN(C(=O)COc2ccc(Cl)cc2)C1` (stereo not drawn) [Example 33, 2-(4-chlorophenoxy)-N-((1-(2-(4-chlorophenoxy)acetyl)pyrrolidin-3-yl)oxy)acetamide], the IC50 was 101 to 1000 nM.

Turning to `O=C(COc1ccc(Cl)cc1)NCC1CCN(C(=O)COc2cncc(Cl)c2)C1` (stereo not drawn) [Example 10, 2-(4-chlorophenoxy)-N-((1-(2-((5-chloropyridin-3-yl)oxy)acetyl)pyrrolidin-3-yl)methyl)acetamide], the IC50 lay within 1000 to 10000 nM.

As to `O=C(COc1ccc(Cl)cc1)NC1CCC2(CC1)CCN(C(=O)COc1ccc(Cl)cc1)C2` (stereo not drawn) [Example 23, 2-(4-chlorophenoxy)-N-(2-(2-(4-chlorophenoxy)acetyl)-2-azaspiro[4.5]decan-8-yl)acetamide], the IC50 was less than 100 nM.

Regarding `O=C(COc1ccc(Cl)c(F)c1)NCC1CCN(CCCOc2ccc(Cl)cc2)C1` (stereo not drawn) [Example 55, 2-(4-chloro-3-fluorophenoxy)-N-((1-(3-(4-chlorophenoxy)propyl)pyrrolidin-3-yl)methyl)acetamide], the half-maximal inhibitory concentration (IC50) is less than 100 nM.

For the compound `O=C(COc1ccc(Cl)cc1)NOC1CCN(C(=O)CCOc2ccc(Cl)cc2)C1` (stereo not drawn) [Example 35, 2-(4-chlorophenoxy)-N-((1-(3-(4-chlorophenoxy)propanoyl)pyrrolidin-3-yl)oxy)acetamide], the IC50 was less than 100 nM.

Turning to `O=C(COc1ccc(Cl)cc1)N[C@H]1[C@@H]2CN(CCCOc3ccc(Cl)nc3)C[C@@H]21` [Example 65, 2-(4-chlorophenoxy)-N-((1R,5S,6s)-3-(3-((6-chloropyridin-3-yl)oxy)propyl)-3-azabicyclo[3.1.0]hexan-6-yl)acetamide], the 50% inhibitory concentration (IC50) was 101 to 1000 nM.

Take `O=C(COc1ccc(Cl)cc1)NCC1CCN(CCCOc2ccc(Cl)c(F)c2)C1` (stereo not drawn) [Example 64, N-((1-(3-(4-chloro-3-fluorophenoxy)propyl)pyrrolidin-3-yl)methyl)-2-(4-chlorophenoxy)acetamide]: the IC50 is 101 to 1000 nM and 127 nM.

As to `Cc1cc(Cl)ccc1OCCCN1CCC(CNC(=O)COc2ccc(Cl)cc2)C1` (stereo not drawn) [Example 67, N-((1-(3-(4-chloro-2-methylphenoxy)propyl)pyrrolidin-3-yl)methyl)-2-(4-chlorophenoxy)acetamide], the half-inhibitory concentration (IC50) lay within 101 to 1000 nM.

For the compound `O=C(COc1ccc(Cl)cc1)NCC1CCN(CCCOc2ccc(C(F)(F)F)cc2)C1` (stereo not drawn) [Example 63, 2-(4-chlorophenoxy)-N-((1-(3-(4-(trifluoromethyl)phenoxy)propyl)pyrrolidin-3-yl)methyl)acetamide], the IC50 fell in the range of 101 to 1000 nM.

Consider `O=C(COc1ccc(Cl)cc1)N1CC2CN(C(=O)COc3ccc(Cl)cc3)CC2C1` (stereo not drawn) [Example 6, 1,1′-(tetrahydropyrrolo[3,4-c]pyrrole-2,5(1H,3H)-diyl)bis(2-(4-chlorophenoxy)ethanone)], for which the IC50 lay in the range of 1000 to 10000 nM.

Take `O=C(COc1ccc(Cl)cc1)NC1[C@H]2CN(C(CCOc3ccc(Cl)cc3)C(=O)O)C[C@@H]12` (stereo partly drawn) [Example 82, 4-(4-chlorophenoxy)-2-((1R,5S)-6-(2-(4-chlorophenoxy)acetamido)-3-azabicyclo[3.1.0]hexan-3-yl)butanoic acid hydrochloride]: the IC50 is less than 100 nM.

Take `O=C(COc1ccc(Cl)cc1)N[C@H]1[C@@H]2CN(C(=O)C3CC3c3ccc(Cl)cc3)C[C@@H]21` (stereo partly drawn) [Example 37, 2-(4-chlorophenoxy)-N-((1R,5S,6s)-3-(2-(4-chlorophenyl)cyclopropane-1-carbonyl)-3-azabicyclo[3.1.0]hexan-6-yl)acetamide]: the half-inhibitory concentration (IC50) is < 100 nM and 69.5 nM.

The same assay, now with this note: read-out: average ATF4 pathway inhibitory activity (IC50).
With `O=C(COc1ccc(Cl)cc1)NC[C@@H]1CCN(C(=O)COc2ccc(Cl)cc2)C1` [Example 29, (S)-2-(4-chlorophenoxy)-N-((1-(2-(4-chlorophenoxy)acetyl)pyrrolidin-3-yl)methyl)acetamide], the IC50 was 101 to 1000 nM.

Regarding `O=C(COc1ccc(Cl)cc1)NCC1CCN(C(=O)COc2ccc(Cl)cc2)C1` (stereo not drawn) [Example 1, 2-(4-chlorophenoxy)-N-((1-(2-(4-chlorophenoxy)acetyl)pyrolidin-3-yl)methyl)acetamide], the IC50 lay in the range of 101 to 1000 nM.
